Experimental data as given in patent US20060073516A1, “Novel screening method” (priority 2002, published 2006).

Experiments:
TGR7 [1] = biological target: T1, TGR7 (Homo sapiens, UniProt Q8TDS7); assay: Suppression of forskolin-increased intracellular cAMP level in TGR7-expressed CHO cells; format: cell-based; parameters: expressed in transfected cells; host or cells: CHO cells; details: 1 μM forskolin, ligand 1.0×10^−3 M-3.0×10^−7 M, compared to mock CHO cells (FIG. 6, FIG. 7)
Description: (§1) The TGR7- and rCB7T084-expressed CHO cells were washed with assay medium (HBSS (GibcoBRL) supplemented with 0.1% bovine serum albumin and 0.2 mM IBMX). Thereafter, the cells were incubated at 37° C. for 30 minutes under 5% CO2 conditions. β-Alanine (1.0×10^−3 M-3.0×10^−7 M) and L-carnosine (1.0×10^−3 M-3.0×10^−7 M) diluted with the assay medium in various concentrations were added and forskokin was then added thereto in 1 μM. The cells were incubated at 37° C. for 30 minutes under 5% CO2 conditions. The culture supernatant was discarded and the intracellular cAMP level was determined on a plate reader (ARVO multi-label counter, Wallac, Inc.), following the protocol of cAMP Screen Kit (Applied Biosystems, Inc.).

TGR7 [2] = biological target: T1, TGR7; details: β-alanine added in 10^−4 M to 10^−5 M; CHO-K1 cells expressing human TGR7; FLIPR, Fluo-3AM (FIG. 1)
Description: (§2) The CHO-K1 cell line was cultured in HAM F-12 medium (Invitrogen) containing 10% fetal calf serum (Invitrogen), unless otherwise indicated. A day before transfection, 4.5×10^5 cells per 10 cm^2 were plated, followed by incubation in a CO2 incubator adjusted to a concentration of 5% CO2 at 37° C. for at least 15 hours. Using Lipofectamine reagent (Invitrogen), transfection was carried out by modifications of the method attached to the reagent. When a 6-well plate was used for the incubation, the following procedures were performed. First, 2 tubes each having a 1.5 ml volume were prepared and 100 μl each of Opti-MEM medium (Invitrogen) was dispensed in each tube. Next, 1 μg of the expression vector was charged in one tube and in another tube, 6 μl of Lipofectamine reagent was charged, which were mixed together. The mixture was settled for 20 minutes at room temperature. To the solution, 800 μl of Opti-MEM medium was added and the resulting solution mixture for transfection was added to the CHO-K1 cells, which had been previously washed with Opti-MEM medium. Then, the cells were incubated in a CO2 incubator for 6 hours. After the incubation, the cells were rinsed with PBS (Invitrogen), then scraped using 0.05% trypsin-EDTA solution (Invitrogen) and recovered by centrifugal operation. The cells obtained were counted and diluted to 5×10^4 cells per 200 μl of the medium. The dilution was dispensed onto a Black walled 96-well plate (Costar) in 200 μl each per well, followed by incubation overnight in a CO2 incubator. Various test samples were added to the CHO-K1 cells in which the receptor was transiently expressed by the transfection operation described above, whereby changes in the intracellular calcium ion level were determined using FLIPR (Molecular Device). In order to determine the changes in the intracellular calcium ion level on FLIPR, the cells were pre-teated by the following procedures. […] Following the pre-treatment above, changes in intracellular calcium level after addition of various test samples were measured on FLIPR.

rat rCB7T084 = rat rCB7T084 (Rattus norvegicus, UniProt Q7TN41, R55S); details: β-alanine added in 10^−4 M to 10^−5 M; CHO-K1 cells expressing rat rCB7T084; FLIPR, Fluo-3AM (FIG. 2)
Description: as §2

[3] = test system: CHO-K1 cells into which the expression vector alone was introduced; details: control CHO-K1 cells, expression vector alone (no insert); FLIPR (FIG. 3)
Description: as §2

rCB7T084 = biological target: T2, rCB7T084 (Rattus norvegicus, UniProt Q7TN41, R55S); assay: Suppression of forskolin-increased intracellular cAMP level in rCB7T084-expressed CHO cells; format: cell-based; details: 1 μM forskolin, ligand 1.0×10^−3 M-3.0×10^−7 M, compared to mock CHO cells (FIG. 6, FIG. 7)
T2 construct: expressed in transfected cells; host or cells: CHO cells
T2 sequence (Q7TN41 1-319 R55S): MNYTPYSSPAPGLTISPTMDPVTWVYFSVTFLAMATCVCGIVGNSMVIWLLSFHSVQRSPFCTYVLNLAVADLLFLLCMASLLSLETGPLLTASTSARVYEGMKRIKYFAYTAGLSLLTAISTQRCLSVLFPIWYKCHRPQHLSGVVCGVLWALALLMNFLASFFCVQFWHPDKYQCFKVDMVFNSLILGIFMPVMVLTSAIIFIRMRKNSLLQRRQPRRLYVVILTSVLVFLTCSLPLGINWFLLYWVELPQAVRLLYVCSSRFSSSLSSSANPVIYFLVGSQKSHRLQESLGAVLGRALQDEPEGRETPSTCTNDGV
Description: as §1

T1 sequence (Q8TDS7 whole entry): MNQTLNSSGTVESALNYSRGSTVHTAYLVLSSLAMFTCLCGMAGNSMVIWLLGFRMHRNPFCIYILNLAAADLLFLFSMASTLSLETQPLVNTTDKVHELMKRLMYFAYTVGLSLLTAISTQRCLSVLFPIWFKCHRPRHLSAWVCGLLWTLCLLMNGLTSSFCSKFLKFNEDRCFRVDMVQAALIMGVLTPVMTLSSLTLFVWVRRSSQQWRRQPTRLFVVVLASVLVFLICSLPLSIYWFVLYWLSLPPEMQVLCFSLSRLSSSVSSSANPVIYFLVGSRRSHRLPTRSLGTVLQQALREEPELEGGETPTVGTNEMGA

| SMILES | decrease of the intracellular cAMP level increased by forskolin addition (TGR7 [1]) | response (increase in the intracellular calcium level) (TGR7 [2]) | response (increase in the intracellular calcium level) (rat rCB7T084) | response (increase in the intracellular calcium level) [3] | decrease of the intracellular cAMP level increased by forskolin addition (rCB7T084) |
| --- | --- | --- | --- | --- | --- |
| NCCC(=O)O [β-alanine] | dose-dependent and specific decrease | specifically responsive | specifically responsive | such response was not observed | dose-dependent and specific decrease |
| NCCC(=O)N[C@@H](Cc1cnc[nH]1)C(=O)O [L-carnosine] | dose-dependent and specific decrease | – | – | – | dose-dependent and specific decrease |
